Data taken from ChEMBL document CHEMBL4680139, “Antiproliferative activity of diarylnaphthylpyrrolidine derivative via dual target inhibition” (Eur J Med Chem, 2020).

Tests used:
[1] = tested on: HCT-116; assay: Antiproliferative activity against human HCT-116 cells assessed as inhibition of cell growth measured after 48 hrs by SRB assay; format: functional, cell-based; conditions: HCT-116, 48 h
[2] = tested on: A549; assay: Antiproliferative activity against human A549 cells assessed as inhibition of cell growth measured after 48 hrs by SRB assay; format: functional, cell-based; conditions: A549, 48 h
[3] = tested on: MCF7; assay: Antiproliferative activity against human MCF-7 cells assessed as proportion of live cells at 50 ug/ml measured after 3 weeks by crystal violet staining based soft agar colony formation assay (reference value: 100%); format: functional; conditions: dose 50 µg/ml
[4] = tested on: MCF7; assay: Induction of apoptosis in human MCF-7 cells at 2.17 uM by propidium iodide staining based flow cytometry (reference value: 2.1%); format: functional
[5] = tested on: MDA-MB-231; assay: Induction of apoptosis in human MDA-MB-231 cells at 2.6 uM by propidium iodide staining based flow cytometry (reference value: 2.6 +/- 0.28%); format: functional
[6] = tested on: MCF7; assay: Induction of apoptosis in human MCF-7 cells at 4.33 uM by propidium iodide staining based flow cytometry (reference value: 2.1%); format: functional
[7] = tested on: MCF7; assay: Induction of cell cycle arrest in human MCF-7 cells assessed as accumulation at G0/G1 phase at 2.17 uM by propidium iodide staining based flow cytometry (reference value: 74.5%); format: functional
[8] = tested on: MCF7; assay: Induction of cell cycle arrest in human MCF-7 cells assessed as accumulation at S phase at 4.33 uM by propidium iodide staining based flow cytometry (reference value: 6.9%); format: functional
[9] = tested on: MDA-MB-231; assay: Induction of cell cycle arrest in human MDA-MB-231 cells assessed as accumulation at S phase at 10.42 uM by propidium iodide staining based flow cytometry (reference value: 11.35 +/- 0.07%); format: functional
[10] = tested on: MDA-MB-231; assay: Induction of cell cycle arrest in human MDA-MB-231 cells assessed as accumulation at G2/M phase at 2.6 uM by propidium iodide staining based flow cytometry (reference value: 8.35 +/-0.07%); format: functional
[11] = tested on: MDA-MB-231; assay: Induction of cell cycle arrest in human MDA-MB-231 cells assessed as accumulation at G2/M phase at 5.21 uM by propidium iodide staining based flow cytometry (reference value: 8.35 +/- 0.07%); format: functional
[12] = tested on: MDA-MB-231; assay: Induction of cell cycle arrest in human MDA-MB-231 cells assessed as accumulation at G2/M phase at 10.42 uM by propidium iodide staining based flow cytometry (reference value: 8.35 +/-0.07%); format: functional
[13] = tested on: MCF7; assay: Induction of apoptosis in human MCF-7 cells assessed as proportion of viable cells at 2.17 uM measured after 24 hrs by Annexin V- FITC/propidium iodide staining based flow cytometry (reference value: 94.6%); format: functional
[14] = tested on: MCF7; assay: Induction of apoptosis in human MCF-7 cells assessed as proportion of early apoptotic cells at 2.17 uM measured after 24 hrs by Annexin V- FITC/propidium iodide staining based flow cytometry (reference value: 0%); format: functional
[15] = tested on: MCF7; assay: Induction of apoptosis in human MCF-7 cells assessed as proportion of late apoptotic cells at 2.17 uM measured after 24 hrs by Annexin V- FITC/propidium iodide staining based flow cytometry (reference value: 0.1%); format: functional
[16] = tested on: MCF7; assay: Induction of apoptosis in human MCF-7 cells assessed as proportion of viable cells at 4.33 uM measured after 24 hrs by Annexin V- FITC/propidium iodide staining based flow cytometry (reference value: 94.6%); format: functional
[17] = tested on: MCF7; assay: Induction of apoptosis in human MCF-7 cells assessed as proportion of necrotic cells at 4.33 uM measured after 24 hrs by Annexin V- FITC/propidium iodide staining based flow cytometry (reference value: 5.3%); format: functional
[18] = tested on: MCF7; assay: Induction of apoptosis in human MCF-7 cells assessed as proportion of necrotic cells at 8.66 uM measured after 24 hrs by Annexin V- FITC/propidium iodide staining based flow cytometry (reference value: 5.3%); format: functional
[19] = tested on: MDA-MB-231; assay: Induction of apoptosis in human MDA-MB-231 cells assessed as proportion of late apoptotic cells at 2.6 uM measured after 24 hrs by Annexin V-FITC/propidium iodide staining based flow cytometry (reference value: 0.5%); format: functional
[20] = tested on: MDA-MB-231; assay: Induction of apoptosis in human MDA-MB-231 cells assessed as proportion of early apoptotic cells at 5.21 uM measured after 24 hrs by Annexin V-FITC/propidium iodide staining based flow cytometry (reference value: 0.2%); format: functional
[21] = tested on: MDA-MB-231; assay: Induction of apoptosis in human MDA-MB-231 cells assessed as proportion of late apoptotic cells at 10.42 uM measured after 24 hrs by Annexin V-FITC/propidium iodide staining based flow cytometry (reference value: 0.5%); format: functional
[22] = Toxicity in Swiss albino mouse assessed as haemoglobin level in blood at 5 mg/kg, po administered as single dose (reference value: 12.05 +/-0.88 gm/dl); format: organism-based; conditions: in vivo
[23] = Toxicity in Swiss albino mouse assessed as creatinine level in serum at 5 mg/kg, po administered as single dose (reference value: 0.27+/-0.02 mg/dl); format: organism-based; conditions: in vivo
[24] = Toxicity in Swiss albino mouse assessed as triglyceride level in serum at 5 mg/kg, po administered as single dose (reference value: 78.34 +/-2.99 mg/dl); format: organism-based; conditions: in vivo
[25] = Toxicity in Swiss albino mouse assessed as body weight at 50 mg/kg, po administered as single dose (reference value: 31.62 +/- 1.64 gms); format: organism-based; conditions: in vivo
[26] = Toxicity in Swiss albino mouse assessed as SGOT level in serum at 50 mg/kg, po administered as single dose (reference value: 22.12 +/-1.91 U/L); format: organism-based; conditions: in vivo
[27] = Toxicity in Swiss albino mouse assessed as creatinine level in serum at 50 mg/kg, po administered as single dose (reference value: 0.27+/-0.02 mg/dl); format: organism-based; conditions: in vivo
[28] = Toxicity in Swiss albino mouse assessed as cholesterol level in serum at 50 mg/kg, po administered as single dose (reference value: 103.62 +/-7.45 mg/dl); format: organism-based; conditions: in vivo
[29] = Toxicity in Swiss albino mouse assessed as body weight at 300 mg/kg, po administered as single dose (reference value: 31.62 +/- 1.64 gms); format: organism-based; conditions: in vivo
[30] = Toxicity in Swiss albino mouse assessed as haemoglobin level in blood at 300 mg/kg, po administered as single dose (reference value: 12.05 +/-0.88 gm/dl); format: organism-based; conditions: in vivo
[31] = Toxicity in Swiss albino mouse assessed as SGOT level in serum at 300 mg/kg, po administered as single dose (reference value: 22.12 +/-1.91 U/L); format: organism-based; conditions: in vivo
[32] = Toxicity in Swiss albino mouse assessed as creatinine level in serum at 300 mg/kg, po administered as single dose (reference value: 0.27+/-0.02 mg/dl); format: organism-based; conditions: in vivo
[33] = biological target: DNA topoisomerase 2-alpha (Homo sapiens) (UniProt P11388); assay: Inhibition of DNA-topoisomerase 2 in human MCF7 cells using kinetoplast DNA as substrate measured by ELISA; format: cell-based; conditions: dose 4.33-17.32 µM
[34] = Toxicity in Swiss albino mouse assessed as absolute and relative liver weight at 5 to 300 mg/kg, po administered as single dose; format: organism-based; conditions: in vivo, dose 5-300 mg/kg

Sequence of DNA topoisomerase 2-alpha (Homo sapiens) (P11388 whole entry): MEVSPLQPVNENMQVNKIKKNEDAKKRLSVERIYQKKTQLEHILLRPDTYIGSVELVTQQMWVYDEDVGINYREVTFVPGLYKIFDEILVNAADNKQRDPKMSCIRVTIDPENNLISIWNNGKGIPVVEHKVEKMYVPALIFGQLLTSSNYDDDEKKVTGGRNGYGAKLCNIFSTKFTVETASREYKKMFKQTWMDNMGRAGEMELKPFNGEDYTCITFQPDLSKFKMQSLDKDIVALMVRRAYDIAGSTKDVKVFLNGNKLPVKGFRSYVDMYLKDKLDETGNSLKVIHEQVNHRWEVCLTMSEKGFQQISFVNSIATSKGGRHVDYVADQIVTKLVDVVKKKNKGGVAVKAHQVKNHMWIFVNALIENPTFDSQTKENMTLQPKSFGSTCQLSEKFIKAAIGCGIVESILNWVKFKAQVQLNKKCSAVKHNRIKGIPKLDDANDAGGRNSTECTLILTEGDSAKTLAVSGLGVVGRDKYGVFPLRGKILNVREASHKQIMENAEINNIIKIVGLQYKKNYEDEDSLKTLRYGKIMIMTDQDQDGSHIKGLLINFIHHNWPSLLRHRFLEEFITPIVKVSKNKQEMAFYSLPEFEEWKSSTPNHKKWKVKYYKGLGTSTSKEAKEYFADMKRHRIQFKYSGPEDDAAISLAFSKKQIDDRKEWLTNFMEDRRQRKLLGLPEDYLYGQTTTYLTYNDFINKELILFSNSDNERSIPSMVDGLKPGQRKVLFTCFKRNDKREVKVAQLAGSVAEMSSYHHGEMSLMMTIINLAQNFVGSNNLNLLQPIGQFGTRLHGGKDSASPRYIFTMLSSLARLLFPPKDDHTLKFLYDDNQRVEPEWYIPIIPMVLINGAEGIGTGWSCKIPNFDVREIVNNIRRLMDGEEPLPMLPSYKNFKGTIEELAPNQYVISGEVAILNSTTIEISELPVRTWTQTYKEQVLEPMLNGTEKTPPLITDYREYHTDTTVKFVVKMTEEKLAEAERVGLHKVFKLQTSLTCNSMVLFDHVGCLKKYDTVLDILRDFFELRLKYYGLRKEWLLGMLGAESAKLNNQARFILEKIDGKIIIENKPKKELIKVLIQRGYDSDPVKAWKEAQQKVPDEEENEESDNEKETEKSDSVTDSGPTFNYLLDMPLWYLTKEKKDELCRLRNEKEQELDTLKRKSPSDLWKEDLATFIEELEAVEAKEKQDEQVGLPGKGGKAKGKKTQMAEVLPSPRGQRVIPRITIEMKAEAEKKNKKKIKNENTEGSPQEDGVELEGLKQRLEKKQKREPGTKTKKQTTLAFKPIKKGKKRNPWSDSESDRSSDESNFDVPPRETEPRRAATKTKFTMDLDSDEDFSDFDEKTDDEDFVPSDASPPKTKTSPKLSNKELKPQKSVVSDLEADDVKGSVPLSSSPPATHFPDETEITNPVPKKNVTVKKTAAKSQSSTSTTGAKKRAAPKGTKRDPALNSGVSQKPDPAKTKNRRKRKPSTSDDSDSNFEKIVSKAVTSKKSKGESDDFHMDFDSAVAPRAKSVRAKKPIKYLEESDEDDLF

With `COc1ccc(C(c2ccccc2OCCN2CCCC2)c2cccc3ccccc23)c(OC)c1OC` (centres undefined) the IC50 [1] was 2030 nM, the IC50 [2] was 5.85 µM and the Activity [3] was 12.98%. For the same compound, the Activity [4] was 2.2%, the Activity [5] was 2.7% and the Activity [6] was 4.7%. It also gave an Activity [7] of 74.6%, an Activity [8] of 13.9% and an Activity [9] of 11.35%. It also gave an Activity [10] of 10.35%, an Activity [11] of 10.2% and an Activity [12] of 15.05%. It also gave an Activity [13] of 77.8%, an Activity [14] of 0% and an Activity [15] of 16.5%. The Activity [16] was 63.1%, the Activity [17] was 10.5% and the Activity [18] was 12.1%. It also gave an Activity [19] of 2%, an Activity [20] of 0.4% and an Activity [21] of 34.2%. For the same compound, the Activity [22] was 11.35 g/dL, the Activity [23] was 0.22 mg/dL and the Activity [24] was 77.24 mg/dL. For the same compound, the Activity [25] was 30.44 g, the Activity [26] was 25.42 U/L and the Activity [27] was 0.34 mg/dL. The Activity [28] was 100.11 mg/dL, the Activity [29] was 31.03 g and the Activity [30] was 10.13 g/dL. The Activity [31] was 25.61 U/L, the Activity [32] was 0.2 mg/dL and the inhibition [33] was “Dose-dependent effect”. The Activity [34] was “Non-Toxic”.
